Source: US12258308B2, “Benzene derivative” (ONO PHARMACEUTICAL CO., LTD., priority 2018, dated 2025)

Tests used:
rat Schwann cells = assay: In vitro test using Schwann cells (Schwann cell differentiation promotion, MAG immunostaining); type: cell-based; details: Rattus norvegicus, 72 h, 3 days, MAG-positive area/cell nuclei; for activity at 0.3 µM: compound 0.3 μmol/L, read-out: Schwann cell differentiation promotion rate (% of vehicle) 0.3 μmol/L; for activity at 3 µM: compound 3 μmol/L, read-out: Schwann cell differentiation promotion rate (% of vehicle) 3 μmol/L
Method: Biological Experiment Example 1: In Vitro Test Using Schwann Cells
• (1) Preparation of rat Schwann cells
A dorsal root ganglion (abbreviated as “DRG”, hereinafter) was excised from a newborn rat aged 0 to 2 days in a clean bench and was collected in DMEM. After the collection, the tube was centrifuged at 400 g, at room temperature for 3 minutes, then a supernatant was discarded, and a 0.25% collagenase solution was added. There resultant solution was incubated at 37° C. for 30 minutes to disperse and separate the excised DRG, and was then centrifuged at room temperature at 400 g for 3 minutes, then a supernatant was discarded, and then 0.25% Trypsin/EDTA and DNaseI were added. After the incubation at 37° C. for 30 minutes, trypsin was inactivated with DMEM supplemented with 10% FBS (10% FBS-DMEM), and centrifugation was carried out at room temperature at 400 g for 3 minutes. A supernatant was discarded, then 10% FBS-DMEM was added to the residue to prepare a cell suspension, and then the cell suspension was allowed to pass through a filter (diameter: 70 μm). The number of cells in the cell suspension which passed through the filter was counted to prepare a solution having a concentration of 2.0×10^5 cells/mL, and the suspension was seeded in a poly-D-lysine-coated 96-well black-clear plate in an amount of 100 μL/well and was then statically cultured in a CO2 incubator under the conditions including 5% of CO2, 95% of air and 37° C.
The culture medium in the cell culture plate was removed by suction using an aspirator, and then DMEM supplemented with 1% dialyzed FBS and 100 μmol/L dibutyryl cyclic AMP was added. Subsequently, a solution of a compound of the present invention dissolved in DMSO was added, and the resultant solution was statically cultured in a C02 incubator under the conditions including 5% of C02, 95% of air and a temperature of 37° C. The final concentration of the compound of the present invention in each well in the cell culture plate was adjusted to 0.1, 0.3, 1 or 3 μmol/L.
Three days after the treatment with the compound, formaldehyde was added to each well in the cell culture plate, and the cell culture plate was allowed to stand at room temperature for 30 minutes or longer. A supernatant was discarded, and then a 0.3% tritonX-100 solution was added to each well, and then the cell culture plate was allowed to stand at room temperature for 20 minutes or longer. A supernatant was discarded, then a 5-μg/mL anti-myeline-associated glycoprotein antibody (anti-MAG antibody) solution was added to each well, and then the cell culture plate was allowed to stand at room temperature for 60 minutes or longer or at 4° C. (acceptable range: 1 to 9° C.) overnight. Each well was washed with a 0.1% tritonX-100 solution three times, then a 10-μg/mL Alexa fluor 488 anti-mouse IgG solution was added to each well, and then the cell culture plate was allowed to stand at room temperature for 60 or longer or at 4° C. overnight. Each well was washed with a 0.1% tritonX-100 solution four times, and then a 1-μg/mL Hoechst33342 solution was added to each well to stain nuclei.
The Mag-positive area and the number of cell nuclei in a fluorescent image were calculated. With respect to each of the MAG-positive area and the number of cell nuclei, the sum total of values obtained in 5 viewing fields/well was determined. The values were employed as a value for the MAG-positive area and a value for the number of cell nuclei, respectively, in each well. Subsequently, a value determined by dividing the value for the MAG-positive area in each well by the value for the number of cell nuclei in the well (i.e., MAG/cell nuclei numerical value) was calculated. The Schwann cell differentiation promotion rate was determined for each of the vehicles in accordance with the following formula. […]

[1] = tested on: streptozotocin-induced rat model; assay: Test using streptozotocin-induced rat model (nociceptive threshold, von Frey); type: in vivo; details: for Nociceptive threshold improve rate (%) 7 days after withdrawal of administration: 0.3 mg/kg oral once per day day 14 to 28, 35 days after STZ; for Nociceptive threshold improve rate (%) After initial single administration: 14 days after STZ, 2 hours after administration; for Nociceptive threshold improve rate (%) 7 days after start of administration: 21 days after STZ; for Nociceptive threshold improve rate (%) 14 days after start of administration: 28 days after STZ
Method: Biological Experiment Example 2: Test Using Streptozotocin-Induced Rat Model
In order to evaluate the therapeutic effect of each of the compounds of the present invention on diabetic peripheral neuropathy, an in vivo test using a streptozotocin model was carried out.
A model was produced by intravenously administering streptozotocin (abbreviated as “STZ”, hereinafter) one time at a dose amount of 55 mg/kg to a rat.
(2) Measurement of Nociceptive Threshold
The rat was placed in a clear acryl measurement cage once or more times for 10 minutes or longer until the administration of STZ started. In this manner, the rat was acclimated to the measurement environment. Eight von Frey filaments respectively having weights of 0.4, 0.6, 1, 2, 4, 6, 8 and 15 g were applied vertically to a hindpaw of the rat from under a metallic mesh floor. When a quick escape or flinching reaction was observed, it was determined that a positive reaction occurred (i.e., “response was observed”). Each of the compounds of the present invention was administered orally once per day in a period from day 14 to day 28 after the administration of STZ, wherein the dose amount of each of the compounds was 0.03, 0.3 or 3 mg/kg. A nociceptive threshold was measured 2 hours after the administration of each of the compounds of the present invention at the timings of before the administration of STZ, 14 days after the administration of STZ (i.e., the day of the start of the administration of each of the compounds of the present invention), 21 days after the administration of STZ (i.e., 7 days after the start of the administration of the compound), 28 days after the administration of STZ (i.e., 14 days after the start of the administration of the compound), and 35 days after the administration of STZ (i.e., 7 days after the withdrawal of the administration of the compound).
The nociceptive threshold was measured by the up-down method in accordance with the method of Chaplan et. al. (J Neurosci Methods. 1994; 53:55-63). The rate of improvement in the nociceptive threshold was calculated in accordance with the following formula. Nociceptive threshold improve rate (%)=(nociceptive threshold on each of the number of days elapsed after administration of STZ−B)/(A−B)×100 [Math 2] • A: Nociceptive threshold before administration of STZ • B: Nociceptive threshold on 14 days elapsed after administration of STZ (Results)
The results of the nociceptive thresholds and the nociceptive threshold improve rates obtained when each of the compounds of the present invention was administered at a dose amount of 0.3 mg/kg are shown in the FIGURE and Table 2, respectively. With respect to all of the compounds, a potent pain relief effect against peripheral neuropathy was observed. With respect to the compound of Example 11, for example, the improvement in the nociceptive threshold was observed from 7 days after the start of the administration of the compound, and this effect lasted even 7 days after the withdrawal of the administration.

Structure (SMILES): O=C(O)CCc1ccccc1OCC[C@@H](O)CCc1cccc(C(O)Cc2ccccc2)c1 (stereo in doubt) [Example 36, 3-[2-[(3S)-3-Hydroxy-5-[3-[(1R)-1-hydroxy-2-phenylethyl]phenyl]pentoxy]phenyl]propanoic acid]
- activity at 0.3 µM (rat Schwann cells): 126%
- activity at 3 µM (rat Schwann cells): 732%
- Nociceptive threshold improve rate (%) 7 days after withdrawal of administration [1]: 57.4 ± 10.74%
- Nociceptive threshold improve rate (%) After initial single administration ([1]; 0.3 mg/kg oral once per day): 3.6 ± 7.07%
- Nociceptive threshold improve rate (%) 7 days after start of administration ([1]; 0.3 mg/kg oral once per day): 57.1 ± 13.78%
- Nociceptive threshold improve rate (%) 14 days after start of administration ([1]; 0.3 mg/kg oral once per day): 64.2 ± 13.02%

Structure (SMILES): O=C(O)CCc1ccccc1OCC[C@@H](O)CCc1cccc(C(O)Cc2ccccc2)c1 (stereo in doubt) [Example 37, 3-[2-[(3S)-3-Hydroxy-5-[3-[(1S)-1-hydroxy-2-phenylethyl]phenyl]pentoxy]phenyl]propanoic acid]
- activity at 0.3 µM (rat Schwann cells): 171%
- activity at 3 µM (rat Schwann cells): 915%
- Nociceptive threshold improve rate (%) 7 days after withdrawal of administration [1]: 58.7 ± 19.84%
- Nociceptive threshold improve rate (%) After initial single administration ([1]; 0.3 mg/kg oral once per day): −11.9 ± 10.78%
- Nociceptive threshold improve rate (%) 7 days after start of administration ([1]; 0.3 mg/kg oral once per day): 61.3 ± 16.58%
- Nociceptive threshold improve rate (%) 14 days after start of administration ([1]; 0.3 mg/kg oral once per day): 78.9 ± 9.85%

Structure (SMILES): O=C(O)CCc1ccccc1OCC[C@@H](O)/C=C/c1cccc(NS(=O)(=O)c2ccccc2)c1 [Example 11, 3-[2-[(E,3R)-5-[3-(Benzenesulfonamido)phenyl]-3-hydroxypent-4-enoxy]phenyl]propanoic acid]
- activity at 0.3 µM (rat Schwann cells): 114%
- activity at 3 µM (rat Schwann cells): 248%
- Nociceptive threshold improve rate (%) 7 days after withdrawal of administration [1]: 41.1 ± 13.71%
- Pain relief effect against peripheral neuropathy ([1]; 0.3 mg/kg oral once per day, STZ rat): a sustained pain relief effect was confirmed
- Nociceptive threshold improve rate (%) After initial single administration ([1]; 0.3 mg/kg oral once per day): −14.6 ± 6.37%
- Nociceptive threshold improve rate (%) 7 days after start of administration ([1]; 0.3 mg/kg oral once per day): 26.6 ± 9.30%
- Nociceptive threshold improve rate (%) 14 days after start of administration ([1]; 0.3 mg/kg oral once per day): 27.1 ± 8.39%

Structure (SMILES): O=C(O)CCc1ccccc1OCC[C@@H](O)/C=C/c1cccc(NC(=O)c2ccccc2)c1 [Example 12(1), 3-[2-[(E,3R)-5-(3-Benzamidophenyl)-3-hydroxypent-4-enoxy]phenyl]propanoic acid]
- activity at 0.3 µM (rat Schwann cells): 120%
- activity at 3 µM (rat Schwann cells): 274%
- Nociceptive threshold improve rate (%) 7 days after withdrawal of administration [1]: 9.1 ± 13.37%
- Nociceptive threshold improve rate (%) After initial single administration ([1]; 0.3 mg/kg oral once per day): 6.2 ± 5.72%
- Nociceptive threshold improve rate (%) 7 days after start of administration ([1]; 0.3 mg/kg oral once per day): 17.4 ± 17.19%
- Nociceptive threshold improve rate (%) 14 days after start of administration ([1]; 0.3 mg/kg oral once per day): 44.6 ± 11.54%

Structure (SMILES): O=C(O)CCc1ccccc1OCC[C@@H](O)/C=C/c1cccc2c1CCN2S(=O)(=O)c1ccccc1 [Example 13(15), 3-[2-[(E,3R)-5-[1-(Benzenesulfonyl)-2,3-dihydroindol-4-yl]-3-hydroxypent-4-enoxy]phenyl]propanoic Acid]
- activity at 0.3 µM (rat Schwann cells): 219%
- activity at 3 µM (rat Schwann cells): 326%
- Nociceptive threshold improve rate (%) 7 days after withdrawal of administration [1]: 7.1 ± 9.51%
- Nociceptive threshold improve rate (%) After initial single administration ([1]; 0.3 mg/kg oral once per day): −15.4 ± 14.26%
- Nociceptive threshold improve rate (%) 7 days after start of administration ([1]; 0.3 mg/kg oral once per day): 15.9 ± 7.17%
- Nociceptive threshold improve rate (%) 14 days after start of administration ([1]; 0.3 mg/kg oral once per day): 8.5 ± 11.50%

Structure (SMILES): O=C(O)CCc1ccccc1OCC[C@@H](O)/C=C/c1ccc2c(c1)CN(S(=O)(=O)c1ccccc1)C2 [Example 13(16), 3-[2-[(E,3R)-5-[2-(Benzenesulfonyl)-1,3-dihydroisoindol-5-yl]-3-hydroxypent-4-enoxy]phenyl]Propanoic Acid]
- activity at 0.3 µM (rat Schwann cells): 170%
- activity at 3 µM (rat Schwann cells): 377%
- Nociceptive threshold improve rate (%) 7 days after withdrawal of administration [1]: −7.8 ± 14.90%
- Nociceptive threshold improve rate (%) After initial single administration ([1]; 0.3 mg/kg oral once per day): −6.0 ± 3.87%
- Nociceptive threshold improve rate (%) 7 days after start of administration ([1]; 0.3 mg/kg oral once per day): 25.8 ± 5.28%
- Nociceptive threshold improve rate (%) 14 days after start of administration ([1]; 0.3 mg/kg oral once per day): 29.6 ± 8.19%

Structure (SMILES): O=C(O)CCc1ccccc1OCC[C@@H](O)/C=C/c1cccc(NS(=O)(=O)C2CCCC2)c1 [Example 74(13), 3-[2-[(E,3R)-5-[3-(Cyclopentylsulfonylamino)phenyl]-3-hydroxypent-4-enoxy]phenyl]propanoic acid]
- activity at 0.3 µM (rat Schwann cells): 79.9%
- activity at 3 µM (rat Schwann cells): 184%
- Nociceptive threshold improve rate (%) 7 days after withdrawal of administration [1]: 76.3 ± 13.41%
- Nociceptive threshold improve rate (%) After initial single administration ([1]; 0.3 mg/kg oral once per day): 2.6 ± 1.69%
- Nociceptive threshold improve rate (%) 7 days after start of administration ([1]; 0.3 mg/kg oral once per day): 28.3 ± 7.44%
- Nociceptive threshold improve rate (%) 14 days after start of administration ([1]; 0.3 mg/kg oral once per day): 57.3 ± 17.63%

Structure (SMILES): O=C(O)CCc1ccccc1OCCC/C=C/c1cccc(NS(=O)(=O)c2ccccc2)c1 [Example 84, 3-[2-[(E)-5-[3-(Benzenesulfonamido)phenyl]pent-4-enoxy]phenyl]propanoic acid]
- activity at 0.3 µM (rat Schwann cells): 162%
- activity at 3 µM (rat Schwann cells): 445%
- Nociceptive threshold improve rate (%) 7 days after withdrawal of administration [1]: 58.8 ± 12.51%
- Nociceptive threshold improve rate (%) After initial single administration ([1]; 0.3 mg/kg oral once per day): 5.7 ± 2.48%
- Nociceptive threshold improve rate (%) 7 days after start of administration ([1]; 0.3 mg/kg oral once per day): 35.0 ± 16.24%
- Nociceptive threshold improve rate (%) 14 days after start of administration ([1]; 0.3 mg/kg oral once per day): 49.9 ± 11.50%
